Test results reported in publication PMC9781827, “Isolation and Identification of Anti-Inflammatory Peptide from Goose Blood Hydrolysate to Ameliorate LPS-Mediated Inflammation and Oxidative Stress in RAW264.7 Macrophages” (Molecules, 2022).
Several values for one entry are separate records, joined by “and”; a condition that tells them apart may be missing. Identical values can stand only once.

Legend:
Assay type in all cases: cell-based
IL-6 = IL-6 level by ELISA in culture medium, model of LPS-mediated RAW264.7 macrophage inflammation; settings: LPS group: LPS (1.0 μg/mL) alone, 24 h; mean ± S.D., n = 3
Description: (§1) The anti-inflammatory activity of the peptides was determined according to the methods of a previous study. The anti-inflammatory activity of different fractions was evaluated by measuring the levels of the inflammatory cytokines (TNF-α, IL-1β and IL-6) in a model of LPS-induced macrophage inflammation with ELISA kits (Jiangsu Enzyme marker Biotechnology Co., Ltd., Yancheng, China). […] A 20 mmol/L Tris-HCl (pH 8.0) solution was used as the start buffer and 20 mmol/L Tris-HCl/1 mol/L NaCl (pH 8.0) was used as elution buffer. Elution program: (1) wash with 5 column volumes of starting buffer; (2) elute with 10 column volumes of 50% elution buffer and 50% start buffer; (3) elute with 5 column volumes of 100% elution buffer. The above flow rates were 5 mL/min. The fractions were detected at 280 nm by an ultraviolet detector and collected by an automatic fraction collector.
(§2) The method of RAW264.7 macrophage culture and treatments were based on the study of Li et al.. […] Macrophages from passages 5 to 10 were selected to seed on 96-well culture plates at a density of 4 × 10^5 cells/well and cultured with different concentrations of LPS (0.5 μg/mL, 1.0 μg/mL and 2.0 μg/mL) for 24 h. The optimal concentration of LPS for inducing inflammation in the RAW264.7 macrophage was ensured according to cell viability. […] The ability of GBP to protect RAW264.7 macrophages was evaluated. […]

RAW264.7 macrophages = assay: Viability / cytotoxicity of RAW264.7 macrophages; settings: for viability of RAW264.7 macrophages: 3.0 μg/mL LPS, mean ± S.D., repeated three times
Description: The method of RAW264.7 macrophage culture and treatments were based on the study of Li et al.. RAW264.7 macrophages (Lot number: BH0799, Chinese Academy of Sciences, Shanghai, China) were grown in DMEM-F medium (1:1) containing 3.15 g/L glucose, 0.365 g/L l-glutamine, 3.57 g/L HEPES, 10% FBS and 1% antibiotics at 37 °C in an atmosphere with 5% CO2 and 90% relative humidity. […] The optimal concentration of LPS for inducing inflammation in the RAW264.7 macrophage was ensured according to cell viability. Furthermore, RAW264.7 macrophages were cultured with different concentrations of GBP (100 μg/mL, 200 μg/mL and 400 μg/mL) to evaluate the cytotoxicity of GBP as described above. The ability of GBP to protect RAW264.7 macrophages was evaluated. In the LPS + GBP group, the macrophages medium supplemented with 200 μg/mL GBP was incubated for 2 h. Then, the macrophages medium was substituted with a macrophages medium supplemented with 1.0 μg/mL LPS and incubated for 24 h. In the LPS group, standard macrophages medium incubated for 2 h. Then, the standard macrophages medium was substituted with macrophages medium supplemented with 1.0 μg/mL LPS and incubated for 24 h. In the CTRL group, standard macrophages medium incubated for 2 h, Then, the standard macrophages medium was replaced with a new one and incubated for 24 h. Finally, the macrophages medium and macrophages were collected for further analysis.

[1] = test system: TLR4, CD14, MD-2, MyD88, p-NF-kB/NF-kB, IKKβ; assay: Western blot of TLR4, CD14, MD-2, MyD88, p-NF-kB/NF-kB, IKKβ in RAW264.7 macrophages; settings: LPS group vs CTRL group, p < 0.05
Description: (§3) RAW264.7 macrophages were washed with cold PBS and homogenized with two small magnetic beads (2 mm) and 10× volume of RIPA buffer containing 1% protease inhibitors for 60 s. Then the supernatant was collected after centrifuging at 12,000× g for 10 min at 4 °C, which was the total protein solution. The concentration of protein in the total protein solution was measured by BCA kits. The protein concentration of the supernatant was diluted to 2.0 mg/mL and mixed with an equal volume of buffer (0.25 mol/L Tris-HCl buffer, pH 6.8, containing 4% SDS and 20% glycerol with 20 mmol/L 2-mercaptoethanol). The stacking gel and separating gel were made of 5% (w/v) and 10% (w/v) polyacrylamide, respectively. Electrophoresis was carried out at 80 V until the dye front reached the bottom of the stacking gel, and the gel was run at 120 V until the dye front reached the bottom of the separating gel (165-8001, Bio-Rad Mini-PROTEAN Tetra Electrophoresis System). The PVDF membrane was covered on the gel and transferred membrane at 300 mA for 30 min. The membrane was moved into a decolorization shaker with 5% skim milk (0.5% TBST) and blocked for 1 h at room temperature. […] The film was scanned and archived, processed and decolorized by Photoshop, and the optical density value of the target band was analysed by ImageJ software processing system.

Keap-1, NrF2, HO-1 = assay: Western blot of Keap-1, NrF2, HO-1 in RAW264.7 macrophages; settings: stimulation with LPS alone
Description: as §3

TNF-α = TNF-α level by ELISA in culture medium, model of LPS-mediated RAW264.7 macrophage inflammation; settings: LPS group: LPS (1.0 μg/mL) alone, 24 h; mean ± S.D., n = 3
Description: as §1, §2

Substance: lipopolysaccharide [LPS]
- level of IL-6 (IL-6): 373.01 ± 12.49 pg/mL
- viability of RAW264.7 macrophages (RAW264.7 macrophages; 24 h, Figure 1A): approximately 51.51 ± 4.29%
- viability of RAW264.7 macrophages (RAW264.7 macrophages; LPS group of Figure 1C (CTRL 100 ± 7.35%)): 51.57 ± 7.07%
- LPS concentration resulting in 50% RAW264.7 macrophages death (RAW264.7 macrophages; 24 h, estimated from viability at 3.0 μg/mL): around 3.0 μg/mL
- protein expression levels of TLR4, CD14, MD2, MyD88, p-NF-kB, NF-kB and IKKβ [1]: elevated
- protein expression level of Keap-1 (Keap-1, NrF2, HO-1): significantly increased
- protein expression levels of NrF2 and HO-1 (Keap-1, NrF2, HO-1): decreased
- level of TNF-α (TNF-α): 271.35 ± 17.35 pg/mL and 273.77 ± 11.93 pg/mL
